# Test results as given in patent US20100029761A1, “NOVEL COMPOUNDS, PHARMACEUTICAL COMPOSITIONS CONTAINING SAME, AND METHODS OF USE FOR SAME” (priority 2005, published 2010).
# Like-named read-outs stand apart in the source and are kept apart here.
# Assays:
# [1] = system: Escherichia coli (ATCC # 25922); test: Broth microdilution MIC, E. coli; type: cell-based; details: for Ecoli/MH (MIC): Mueller Hinton Broth; for Ecoli/Tsoy (MIC): Trypticase Soy Broth
# Protocol: (§1) A broth microdilution assay is used to assess the antimicrobial activity of the compounds. […] Microorganisms tested include Staphylococcus aureus (ATCC # 29213), Enterococcus faecalis (ATCC # 29212), Pseudomonas aeruginosa (ATCC # 27853), and Escherichia coli (ATCC # 25922). The assay is performed in two growth media, Mueller Hinton Broth and Trypticase Soy Broth. A blood (Tsoy/5% sheep blood) agar plate is inoculated from frozen stocks maintained in T soy broth containing 10% glycerol and incubated overnight at 37° C. Colonies are suspended in sterile broth so that the turbidity matches the turbidity of a 0.5 McFarland standard. The inoculum is diluted 1:10 in sterile broth (Mueller Hinton or Trypticase soy) and 195 ul is dispensed per well of a 96-well plate. The compounds to be tested, dissolved in DMSO, are added to the wells in 5 ul volume at the following concentrations: 25, 12.5, 6.25, 3.125, 1.56 and 0.78 ug/ml in duplicate. Additional concentrations are tested if required. 5 ul of DMSO added to duplicate wells are the vehicle control. Serial dilutions of positive control compounds, vancomycin (E. faecalis and S. aureus) and tobramycin (E. coli and P. aeruginosa), are included in each run. After 24 hours of incubation at 37° C., plates are read at OD600 on a Molecular Devices SpectraMax Plus Spectrophotometer. Average OD600 values are computed using SOFTmax Pro Software (Molecular Devices) and MIC values are determined by linear regression analysis using Prism version 3.02 (Graph Pad Software, San Diego). The MIC is defined as the concentration of compound required to produce an OD600 reading equivalent to 10% of the vehicle control reading.
# [2] = Weight loss, DIO; type: in vivo; details: 20 mg/kg
# [3] = system: Staphylococcus aureus (ATCC # 29213); test: Broth microdilution MIC, S. aureus; type: cell-based; details: for MIC: Staphylococcus aureus, ATCC29213
# Protocol: as §1
# [4] = Mueller Hinton Broth, read-out: SA/MH (MIC)
# [5] = Trypticase Soy Broth, read-out: SA/Tsoy (MIC)
Structure (SMILES),Ecoli/MH (MIC) [1],Ecoli/Tsoy (MIC) [1],Weight Loss DIO ([2]; day 3),"MIC [3, 4] [µg/mL]","MIC [3, 5] [µg/mL]",Weight Loss DIO ([2]; day 2),SA/MH (MIC) ([3]; Mueller Hinton Broth),SA/Tsoy (MIC) ([3]; Trypticase Soy Broth)
CCCCCCCCC1OC(=O)C(=O)C1C(=O)OCC (stereo not drawn) [Compound 1],Neg,Neg,DIO: 20 mg/kg: 4.6% (day 3),32,25,–,–,–
CCCCCCCCC1OC(=O)C(OCC(=O)OCC)=C1C(=O)OCC (stereo not drawn) [Compound 3],–,–,–,150,146,–,–,–
CCCCC1OC(=O)C(O)=C1C(=O)OCC (stereo not drawn) [Compound 2],Neg,Neg,–,–,–,DIO: 20 mg/kg: 3.0% (day 2),Neg,Neg
